Assays:
Format in all cases: functional
[1] = tested on: Bursaphelenchus xylophilus; test: Nematicidal activity against Bursaphelenchus xylophilus assessed as mortality at 0.25 mg/ml measured after 48 hr under microscope
[2] = tested on: Bursaphelenchus xylophilus; test: Nematicidal activity against Bursaphelenchus xylophilus at 0.5 mg/ml measured after 48 hr under microscope
[3] = tested on: Bursaphelenchus xylophilus; test: Nematicidal activity against Bursaphelenchus xylophilus assessed as mortality at 0.0625 mg/ml measured after 48 hr under microscope
[4] = tested on: Bursaphelenchus xylophilus; test: microbe, parasite or virus in culture; details: 48 h, at 0.125 mg/mL
Description: Nematicidal activity against Bursaphelenchus xylophilus assessed as mortality at 0.125 mg/ml measured after 48 hr under microscope

Structure (SMILES) | mortality at 250 µg/mL [1] [%] | mortality at 500 µg/mL [2] [%] | mortality at 62.5 µg/mL [3] [%] | mortality at 125 µg/mL [4] [%]
CCCCCCCCO [OCTANOL] | 17 | 100 |  | 
CCCC/C=C/C=O | 97.8 | 100 | 18 | 76.3
CCCCCCCCCO [NONANOL] | 100 | 100 | 4.7 | 81
CCCCCCC=O [HEPTANAL] |  | 6 |  | 
CCCCCCCCCCCCCCOC(C)=O |  | 0.9 |  | 
CCCCCCCCCCCCCC(=O)O [MYRISTIC ACID] |  | 3.8 |  | 
CCCCC/C=C/C=O | 99 | 100 | 22.6 | 90.6
CCCCCCCCC [NONANE] |  | 2.3 |  | 
CCCCCCCCCCCC(=O)O [DODECANOATE] |  | 1.9 |  | 
CCCCCC/C=C/C=O [2-NONENAL] | 100 | 100 | 47.4 | 99.8
CCCCCCCCCC/C=C/C=O |  | 4.9 |  | 
CCCCCCCOC(C)=O [HEPTYLACETATE] |  | 7.4 |  | 
CCCCCCCCCCCCCCO [MYRISTYL ALCOHOL] |  | 4 |  | 
CCCCCCCCCCC |  | 1.6 |  | 
CCCCCCCCCCCCOC(C)=O [DODECYLACETATE] |  | 1.7 |  | 
CCCCCCCCCCC=O [UNDECANAL] |  | 7.4 |  | 
CCCCCCC [HEPTANE] |  | 2.6 |  | 
CCCCCC/C=C/CO | 100 | 100 |  | 45.5
CCCCCCCCC=O [NONANAL] |  | 14.2 |  | 
CCCCCCCCCCCCO [DODECANOL] |  | 3.1 |  | 
CCCCCCCCCCCCCC |  | 1.7 |  | 

Structure (SMILES) | mortality at 250 µg/mL [1] [%] | mortality at 500 µg/mL [2] [%] | mortality at 62.5 µg/mL [3] [%] | mortality at 125 µg/mL [4] [%]
CCCCCCCCCC(=O)O [DECANOIC ACID] | 100 | 100 | 59.8 | 100
CCCCCCCC(=O)O [OCTANOIC ACID] | 98.9 | 100 |  | 50.1
CCCCCCCCCCOC(C)=O [DECYLACETATE] |  | 1.6 |  | 
CCCCCCCCCCO [DECANOL] | 100 | 100 | 15.6 | 100
CCCCCCCCCCCCCO |  | 4.4 |  | 
CCCCCCCCCC=O [DECANAL] |  | 7.9 |  | 
CCC/C=C/CO |  | 13 |  | 
CCCC/C=C/CO |  | 50.9 |  | 
CCC/C=C/C=O | 83.1 | 95.6 |  | 22
CCCCCCC(=O)O [HEPTANOATE] | 53.7 | 100 |  | 
CCCCCC [HEXANE] |  | 4.4 |  | 
CCCCCCCCCCCCC(=O)O [TRIDECANOATE] |  | 4.4 |  | 
CCCCCCCCCCCC=O [DODECANAL] |  | 6.6 |  | 
CCCCCC=O [HEXANAL] |  | 4.2 |  | 
CCCCCCCC/C=C/CO | 100 | 100 | 45.1 | 100
CCCCCCCCCCC/C=C/CO |  | 2.6 |  | 
CCCCCCCCCOC(C)=O [NONYLACETATE] |  | 3.1 |  | 
CCCCCCCCCC/C=C/CO |  | 3.5 |  | 
CCCCC/C=C/CO | 31.5 | 97.4 |  | 
CCCCCCCCCCCOC(C)=O [UNDECYLACETATE] |  | 2.3 |  | 
CCCCCCCCC/C=C/C=O |  | 5.1 |  | 

Structure (SMILES) | mortality at 250 µg/mL [1] [%] | mortality at 500 µg/mL [2] [%] | mortality at 62.5 µg/mL [3] [%] | mortality at 125 µg/mL [4] [%]
CCCCCCCCCCCCCOC(C)=O [TRIDECYLACETATE] |  | 1.4 |  | 
CCCCCCCCCCCCCC=O [TETRADECANAL] |  | 3.5 |  | 
CCCCCCCC=O [OCTANAL] |  | 13.6 |  | 
CCCCCCCO [1-HEPTANOL] |  | 29.8 |  | 
CCCCCCCCCCCCC=O [TRIDECANAL] |  | 7.6 |  | 
CCCCCCO [1-HEXANOL] |  | 12.6 |  | 
CCCCCCCCCCC/C=C/C=O |  | 3.3 |  | 
CCCCCCCC/C=C/C=O |  | 24.8 |  | 
CCCCCCCC [OCTANE] |  | 3.8 |  | 
CCCCCCCCOC(C)=O [OCTYL ACETATE] |  | 4.9 |  | 
CCCCCC(=O)O [HEXANOATE] |  | 31.3 |  | 
CCCCCCCCCCC(=O)O [UNDECANOATE] | 96 | 98.5 |  | 51.3
CCCCCCCCCCCC [DODECANE] |  | 1.6 |  | 
CCCCCCCCCC [DECANE] |  | 1.6 |  | 
CCCCCCCCCCCO [UNDECANOL] | 100 | 100 | 98.3 | 99.4
CCCCCCCCCCCCC |  | 3.3 |  | 
CCCCCCCCC(=O)O [NONANOATE] | 100 | 100 | 40.1 | 100
CCCCCCCCC/C=C/CO |  | 4.7 |  | 
CCCCCCOC(C)=O [HEXYL ACETATE] |  | 1.5 |  | 
CCCCCCC/C=C/CO | 100 | 100 | 43.3 | 100

Source: ChEMBL document CHEMBL3046862, “Structure-activity relationship of aliphatic compounds for nematicidal activity against pine wood nematode (Bursaphelenchus xylophilus)” (2010)
